Data as given in patent US9394297B2, “Amides as pim inhibitors” (AMGEN INC., priority 2012, dated 2016).
pIC50: −log10 of the molar value. Read-outs that look alike come from different tables or passages of the source.

Columns and labels:
[1] = system: KMS-12-BM myeloma cell line; test: Pim KMS-12 cell assay (phospho-BAD S112 / total BAD, MSD)
Pim-2 = Pim-2 (Homo sapiens (Human), UniProt Q9P1W9); test: Pim-Mn enzyme assay (HTRF, 384-well), Pim-2; assay type: biochemical; settings: read-out: Pim-2-Mn IC50 IP
Pim-1 = Pim-1 (Homo sapiens (Human), UniProt P11309); test: Pim-Mn enzyme assay (HTRF, 384-well), Pim-1; assay type: biochemical; settings: read-out: Pim-1-Mn IC50 IP
KMS-12-BM cell lines = test: KMS12 #2 flow cytometry assay (phospho-BAD Ser112); assay type: cell-based; settings: Homo sapiens, 110 min; KMS-12-BM cells, pBAD Ser112 by flow cytometry, 110 min with compound; read-out: KMS-12-Flow IC50 IP
[2] = Homo sapiens, KMS-12-BM, read-out: KMS-12-BM IC50 IP, KMS-12-BM cells, phospho-BAD (S112) vs total BAD, 1 hour 50 min with compound
[3] = Pim-2 enzyme 0.5 pM, ATP 1.5 μM, BAD (S112) 0.5 μM, HTRF, 22-point curve
[4] = Pim-1 enzyme 5 pM, ATP 1.5 μM, BAD (S112) 0.5 μM, HTRF, 22-point curve
[5] = read-out: KMS-12-BM IC50 IP, KMS-12-BM cells, phospho-BAD (S112) vs total BAD, 1 hour 50 min with compound

Pim-1, sequence (P11309 whole entry): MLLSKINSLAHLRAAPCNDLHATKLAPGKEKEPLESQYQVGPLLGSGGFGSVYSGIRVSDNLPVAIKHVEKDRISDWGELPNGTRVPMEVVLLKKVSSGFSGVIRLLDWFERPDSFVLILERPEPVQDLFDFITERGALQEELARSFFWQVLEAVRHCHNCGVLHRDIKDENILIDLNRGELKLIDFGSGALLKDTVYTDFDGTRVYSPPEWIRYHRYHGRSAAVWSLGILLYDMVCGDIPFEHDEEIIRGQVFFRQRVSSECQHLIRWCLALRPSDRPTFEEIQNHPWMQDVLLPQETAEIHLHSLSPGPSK
Pim-2, sequence (Q9P1W9 whole entry): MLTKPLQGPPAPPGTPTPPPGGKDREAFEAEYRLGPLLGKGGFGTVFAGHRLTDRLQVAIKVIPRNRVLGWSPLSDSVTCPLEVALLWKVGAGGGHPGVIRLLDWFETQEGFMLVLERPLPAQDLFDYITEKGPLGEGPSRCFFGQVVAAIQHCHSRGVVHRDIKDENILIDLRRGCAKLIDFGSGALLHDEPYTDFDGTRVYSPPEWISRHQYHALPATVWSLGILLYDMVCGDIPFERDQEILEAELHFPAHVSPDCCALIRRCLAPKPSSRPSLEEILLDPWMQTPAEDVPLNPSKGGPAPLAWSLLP

Row | Compound | pIC50 [1, 2] | pIC50 (Pim-2; [3]) | further results
1 | CCN(c1cnc2cccc(-c3cc4c([nH]3)CCNC4=O)c2n1)C(C)(C)C [Example 220, 2-(3-(tert-butyl(ethyl)amino)quinoxalin-5-yl)-6,7-dihydro-1H-pyrrolo[3,2-c]pyridin-4(5H)-one] | 7.06 | 10.00 | pIC50 (Pim-1; [4]): 10.00
2 | CCC1CNC(=O)c2cc(-c3cccc4ccc(Nc5ccccc5)nc34)[nH]c21 (racemic) [Example 24, rac-7-ethyl-2-(2-(phenylamino)quinolin-8-yl)-6,7-dihydro-1H-pyrrolo[3,2-c]pyridin-4(5H)-one] | 5.85 | – | –
3 | Cc1nc2cccc(-c3cc4c([nH]3)CCNC4=O)c2nc1NC1(C)CCCCC1 [Example 155, 2-(2-methyl-3-((1-methylcyclohexyl)amino)quinoxalin-5-yl)-6,7-dihydro-1H-pyrrolo[3,2-c]pyridin-4(5H)-one] | 6.53 | 8.82 | pIC50 (Pim-1): 9.15
4 | Cc1cc2cccc(-c3cc4c([nH]3)CCNC4=O)c2nc1Oc1ccccc1 [Example 104, 2-(3-methyl-2-phenoxyquinolin-8-yl)-6,7-dihydro-1H-pyrrolo[3,2-c]pyridin-4(5H)-one] | 5.28 | – | –
5 | Cc1nc2cccc(-c3cc4c([nH]3)CCNC4=O)c2nc1NC1CCCOC1 (single isomer, unassigned) [Example 208, 2-(2-methyl-3-((tetrahydro-2H-pyran-3-yl)amino)quinoxalin-5-yl)-6,7-dihydro-1H-pyrrolo[3,2-c]pyridin-4(5H)-one] | 6.44 | – | –
6 | CC1(C)CCCCN1c1cnc2cccc(-c3cc4c([nH]3)CCNC4=O)c2n1 [Example 212, 2-(3-(2,2-dimethylpiperidin-1-yl)quinoxalin-5-yl)-6,7-dihydro-1H-pyrrolo[3,2-c]pyridin-4(5H)-one] | 6.27 | 8.64 | pIC50 (Pim-1; [4]): 8.89
7 | Cc1nc2cccc(-c3cc4c([nH]3)CCNC4=O)c2nc1NC(C)(C)CCO [Example 279, 2-(3-((3-hydroxy-1,1-dimethylpropyl)amino)-2-methyl-5-quinoxalinyl)-1,5,6,7-tetrahydro-4H-pyrrolo[3,2-c]pyridin-4-one] | 6.60 | – | –
8 | O=C1NCCc2[nH]c(-c3cccc4ccc(N[C@H]5CC[C@H](O)CC5)nc34)cc21 [Example 82, 2-(2-(((1R,4R)-4-hydroxycyclohexyl)amino)quinolin-8-yl)-6,7-dihydro-1H-pyrrolo[3,2-c]pyridin-4(5H)-one] | 5.34 | – | –
9 | CC(c1ccccc1)c1ccc2cccc(-c3cc4c([nH]3)CCNC4=O)c2n1 (single isomer, unassigned) [Example 116, 2-(2-(1-phenylethyl)quinolin-8-yl)-6,7-dihydro-1H-pyrrolo[3,2-c]pyridin-4(5H)-one] | 5.12 | – | –
10 | Cc1nc2cccc(-c3cc4c([nH]3)CCNC4=O)c2nc1NC(C)C(C)C (racemic) [Example 73, 2-(3-4(±)-1,2-dimethylpropyl)amino)-2-methyl-5-quinoxalinyl)-1,5,6,7-tetrahydro-4H-pyrrolo[3,2-c]pyridin-4-one] | 6.97 | – | –
11 | CC1(C)CCCN1c1cnc2cccc(-c3cc4c([nH]3)CCNC4=O)c2n1 [Example 216] | 6.65 | – | –
12 | CC[C@@H]1CNC(=O)c2cc(-c3cccc4ccc(Nc5ccccc5)nc34)[nH]c21 [Example 25, (R)-7-ethyl-2-(2-(phenylamino)quinolin-8-yl)-6,7-dihydro-1H-pyrrolo[3,2-c]pyridin-4(5H)-one] | 5.34 | – | –
13 | Cc1nc2cccc(-c3cc4c([nH]3)CCNC4=O)c2nc1NC1CCCOC1 (racemic) [Example 198, rac-2-(2-methyl-3-((tetrahydro-2H-pyran-3-yl)amino)quinoxalin-5-yl)-6,7-dihydro-1H-pyrrolo[3,2-c]pyridin-4(5H)-one] | 6.51 | – | –
14 | CC1CNC(=O)c2cc(-c3cccc4ccc(Nc5ccccc5)nc34)[nH]c21 (single isomer, unassigned) [Example 30, 7-methyl-2-(2-(phenylamino)quinolin-8-yl)-6,7-dihydro-1H-pyrrolo[3,2-c]pyridin-4(5H)-one] | – | – | pIC50 [1, 5]: 5.23
15 | Cc1nc2cccc(-c3cc4c([nH]3)CCNC4=O)c2nc1NC1CCCOC1 (single isomer, unassigned) [Example 209, 2-(2-methyl-3-((tetrahydro-2H-pyran-3-yl)amino)quinoxalin-5-yl)-6,7-dihydro-1H-pyrrolo[3,2-c]pyridin-4(5H)-one] | – | – | pIC50 [1, 5]: 6.57
16 | Cc1nc2cccc(-c3cc4c([nH]3)CCNC4=O)c2nc1NC(C)(C)C(N)=O [Example 62, 2-methyl-N-2-(3-methyl-8-(4-oxo-4,5,6,7-tetrahydro-1H-pyrrolo[3,2-c]pyridin-2-yl)-2-quinoxalinyl)alaninamide] | 5.58 | – | –

Row | Compound | pIC50 [1, 2] | pIC50 (Pim-2; [3]) | further results
17 | CC1CNC(=O)c2cc(-c3cccc4ccc(Nc5ccccc5)nc34)[nH]c21 (single isomer, unassigned) [Example 29, 7-methyl-2-(2-(phenylamino)quinolin-8-yl)-6,7-dihydro-1H-pyrrolo[3,2-c]pyridin-4(5H)-one] | – | – | pIC50 [1, 5]: 6.13
18 | CC(C)(C)Nc1nc2c(-c3cc4c([nH]3)CCNC4=O)cccc2nc1C=O [Example 282, 3-(tert-butylamino)-5-(4-oxo-4,5,6,7-tetrahydro-1H-pyrrolo[3,2-c]pyridin-2-yl)-2-quinoxalinecarbaldehyde] | 5.46 | – | pIC50 (Pim-1; [4]): 8.28
19 | Cc1nc2cccc(-c3cc4c([nH]3)CCNC4=O)c2nc1CC(C)(C)C [Example 272, 2-(3-(2,2-dimethylpropyl)-2-methyl-5-quinoxalinyl)-1,5,6,7-tetrahydro-4H-pyrrolo[3,2-c]pyridin-4-one] | 5.82 | 8.11 | –
20 | O=C1NCCc2[nH]c(-c3cccc4ccc(Nc5c(F)cccc5F)nc34)cc21 [Example 175, 2-(2-((2,6-difluorophenyl)amino)quinolin-8-yl)-6,7-dihydro-1H-pyrrolo[3,2-c]pyridin-4(5H)-one] | 5.82 | – | –
21 | CC[C@H]1CNC(=O)c2cc(-c3cccc4ccc(Nc5ccccc5)nc34)[nH]c21 [Example 239, (S)-7-ethyl-2-(2-(phenylamino)quinolin-8-yl)-6,7-dihydro-1H-pyrrolo[3,2-c]pyridin-4(5H)-one] | 5.73 | – | –
22 | CC1CNC(=O)c2cc(-c3cccc4ccc(Nc5ccccc5)nc34)[nH]c21 (racemic) [Example 238, rac-7-methyl-2-(2-(phenylamino)quinolin-8-yl)-6,7-dihydro-1H-pyrrolo[3,2-c]pyridin-4(5H)-one] | 5.89 | – | –
23 | Cc1nc2cccc(-c3cc4c([nH]3)[C@H](C)NC4=O)c2nc1NCC(F)(F)F [Example 293, (6S)-6-methyl-2-(2-methyl-3-((2,2,2-trifluoroethyl)amino)-5-quinoxalinyl)-5,6-dihydropyrrolo[3,4-b]pyrrol-4(1H)-one] | – | 8.22 | pIC50 (KMS-12-BM cell lines): 6.39; pIC50 (Pim-1; [4]): 8.20
24 | Cc1nc2ccc(F)c(-c3cc(C(N)=O)c(C)[nH]3)c2nc1NC1(C)CC1 [Example 417, 5-(6-fluoro-2-methyl-3-((1-methylcyclopropyl)amino)quinoxalin-5-yl)-2-methyl-1H-pyrrole-3-carboxamide] | – | 8.45 | pIC50 (KMS-12-BM cell lines): 6.55; pIC50 (Pim-1; [4]): 8.54
25 | Cc1nc2ccc(F)c(-c3cc4c([nH]3)C3(CC3)NC4=O)c2nc1NC1CC1 [Example 283, 2′-(3-(cyclopropylamino)-6-fluoro-2-methylquinoxalin-5-yl)-1′H-spiro[cyclopropane-1,6′-pyrrolo[3,4-b]pyrrol]-4′(5′H)-one] | – | 9.56 | pIC50 (KMS-12-BM cell lines): 7.12; pIC50 (Pim-1; [4]): 9.52
26 | Cc1nc2cccc(-c3cc4c([nH]3)CCNC4=O)c2nc1N[C@H]1CCC[C@@H](N)C1 (single isomer, unassigned) [Example 140, 2-(3-((cis-3-aminocyclohexyl)amino)-2-methylquinoxalin-5-yl)-6,7-dihydro-1H-pyrrolo[3,2-c]pyridin-4(5H)-one] | 5.91 | – | –
27 | CC(C)(C)Nc1nc2c(-c3cc4c([nH]3)CCNC4=O)cccc2nc1N1CC(O)C1 [Example 346, 2-(3-(tert-butylamino)-2-(3-hydroxy-1-azetidinyl)-5-quinoxalinyl)-1,5,6,7-tetrahydro-4H-pyrrolo[3,2-c]pyridin-4-one] | – | 7.97 | pIC50 (KMS-12-BM cell lines): 5.95; pIC50 (Pim-1; [4]): 8.39
28 | Cc1nc2ccc(F)c(-c3cc4c([nH]3)[C@H](C)NC4=O)c2nc1NC1CC1 [Example 285, (S)-2-(3-(cyclopropylamino)-6-fluoro-2-methylquinoxalin-5-yl)-6-methyl-5,6-dihydropyrrolo[3,4-b]pyrrol-4(1H)-one] | – | 9.04 | pIC50 (KMS-12-BM cell lines): 7.29; pIC50 (Pim-1; [4]): 9.27
29 | Cc1nc2cccc(-c3cc4c([nH]3)C3(CC3)NC4=O)c2nc1NCC(F)(F)F [Example 381, 2′-(2-methyl-3-((2,2,2-trifluoroethyl)amino)quinoxalin-5-yl)-1′H-spiro[cyclopropane-1,6′-pyrrolo[3,4-b]pyrrol]-4′(5′H)-one] | – | – | pIC50 (KMS-12-BM cell lines): 6.67; pIC50 (Pim-2): 8.87; pIC50 (Pim-1): 8.80
30 | Cc1nc2cccc(-c3[nH]c4c(c3Cl)C(=O)NC4)c2nc1NC1(C)CC1 [Example 358, 3-Chloro-2-(2-methyl-3-((1-methylcyclopropyl)amino)quinoxalin-5-yl)-5,6-dihydropyrrolo[3,4-b]pyrrol-4(1H)-one] | – | 10.11 | pIC50 (KMS-12-BM cell lines): 7.30; pIC50 (Pim-1; [4]): 10.47
31 | Nc1nc2cccc(-c3cc4c([nH]3)CCNC4=O)c2nc1Oc1ccccc1 [Example 36, 2-(2-amino-3-phenoxyquinoxalin-5-yl)-6,7-dihydro-1H-pyrrolo[3,2-c]pyridin-4(5H)-one] | 6.68 | – | –
